# Measurements published in ChEMBL document CHEMBL4342430, “An Agonist Radioligand for the Proinflammatory Lipid-Activated G Protein-Coupled Receptor GPR84 Providing Structural Insights” (J Med Chem, 2020).
# Active and inactive are the calls of the source. The calls are words filed in the database; no cut-off is given here.
# Experiments:
# [1] = biological target: T1, G-protein coupled receptor 84 (Homo sapiens, UniProt Q9NQS5); assay: Displacement of [3H]PSB-1584 from recombinant human GPR84 expressed in CHO cell membranes co-expressing beta-arrestin2 at 100 uM measured after 6 hrs by scintillation counting method relative to control
# T1 sequence (Q9NQS5 whole entry): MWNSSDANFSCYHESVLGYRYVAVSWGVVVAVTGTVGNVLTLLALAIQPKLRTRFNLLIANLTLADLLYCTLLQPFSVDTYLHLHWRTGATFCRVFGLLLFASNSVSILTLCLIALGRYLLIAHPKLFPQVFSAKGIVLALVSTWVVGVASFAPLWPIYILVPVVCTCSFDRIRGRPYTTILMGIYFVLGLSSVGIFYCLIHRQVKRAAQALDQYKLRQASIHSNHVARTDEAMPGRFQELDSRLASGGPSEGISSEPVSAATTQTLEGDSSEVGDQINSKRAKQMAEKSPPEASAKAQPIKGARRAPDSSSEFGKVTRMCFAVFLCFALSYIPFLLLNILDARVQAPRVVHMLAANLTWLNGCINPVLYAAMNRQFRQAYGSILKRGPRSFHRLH
# [2] = biological target: T1, G-protein coupled receptor 84; assay: Displacement of [3H]PSB-1584 from recombinant human GPR84 expressed in CHO cell membranes co-expressing beta-arrestin2 measured after 6 hrs by scintillation counting method
# [3] = biological target: T1, G-protein coupled receptor 84; assay: Positive allosteric modulation of recombinant human GPR84 expressed in CHO cell membranes co-expressing beta-arrestin2 assessed as increase in [3H]PSB-1584 binding measured after 6 hrs by scintillation counting method relative to control
# [4] = biological target: T1, G-protein coupled receptor 84; assay: Positive allosteric modulation of recombinant human GPR84 expressed in CHO cell membranes co-expressing beta-arrestin2 assessed as increase in [3H]PSB-1584 binding measured after 6 hrs by scintillation counting method
# [5] = biological target: T1, G-protein coupled receptor 84; assay: Agonist activity at recombinant human GPR84 expressed in CHO cell membranes co-expressing beta-arrestin2 assessed as beta-arrestin 2 recruitment measured after 90 mins by beta-galactosidase based PathHunter assay
# [6] = biological target: T1, G-protein coupled receptor 84; assay: Agonist activity at recombinant human GPR84 expressed in CHO cell membranes co-expressing beta-arrestin2 assessed as inhibition of forskolin-stimulated [3H]cAMP accumulation preincubated for 5 mins followed by forskolin stimulation and measured after 15 mins by radioactive assay; assay type: functional, cell-based
# [7] = biological target: T1, G-protein coupled receptor 84; assay: Selectivity ratio of EC50 for agonist activity at recombinant human GPR84 expressed in CHO cell membranes co-expressing beta-arrestin2 assessed as inhibition of forskolin-stimulated [3H]cAMP accumulation to Ki for displacement of [3H]PSB-1584 from recombinant human GPR84 expressed in CHO cell membranes co-expressing beta-arrestin2; assay type: functional
smiles,measurement,setting,value
CCCCCCSc1nc(O)cc(C(=O)OC)n1,inhibition,[1],9%
same,Ki,[2],> 10 µM
CCCCCCSc1nc(C)cc(O)n1,Ki,[2],3.63 µM
O=c1cc(NCCc2ccccc2F)[nH]c(=O)[nH]1,Ki,[2],0.0356 µM
COc1ccc2[nH]cc(Cc3c[nH]c4ccc(OC)cc34)c2c1,%max,[3],46%
same,EC50,[4],0.103 µM
O=c1cc(NCCCCCCCO)[nH]c(=O)[nH]1,Ki,[2],0.267 µM
CCCCCCCCNC(=O)c1cc(=O)[nH]c(=O)[nH]1,inhibition,[1],12%
same,Ki,[2],> 10 µM
CCC(c1c[nH]c2ccccc12)c1c[nH]c2ccccc12,IC50,[2],46.3 µM
O=c1cc(N2CCC(Cc3ccccc3)CC2)[nH]c(=O)[nH]1,Ki,[2],0.0187 µM
CCCCCCCCCNC(=O)c1cc(=O)[nH]c(=O)[nH]1,inhibition,[1],26%
same,Ki,[2],> 10 µM
O=c1cc(N2CCN(C3CCc4ccccc43)CC2)[nH]c(=O)[nH]1 (stereo not given),Ki,[2],0.0147 µM
Fc1ccc2[nH]cc(Cc3c[nH]c4ccccc34)c2c1,%max,[3],55%
O=C(O)CCCCCCCCCCCO,EC50,[5],> 100 µM
same,EC50,[6],> 100 µM
same,inhibition,[1],5%
same,Ki,[2],> 10 µM
O=c1cc(N2CCN(c3ccc(Cl)cc3)CC2)[nH]c(=O)[nH]1,Ki,[2],0.0444 µM
CCCCCCCCCCNc1cc(O)nc(O)n1,Ki,[2],0.000726 µM
CCCCCCCCN(C)c1cc(=O)[nH]c(=O)[nH]1,Ki,[2],0.0036 µM
CCCCCCCCCCCC(O)CC(=O)O (racemic),EC50,[5],0.432 µM
same,EC50,[6],1.57 µM
same,Ki,[2],0.511 µM
Oc1cc(O)nc(SCCCc2ccccc2)n1,Ki,[2],0.0007 µM
O=c1cc(N2CCN(Cc3cccc4ccccc34)CC2)[nH]c(=O)[nH]1,Ki,[2],0.0627 µM
CCc1ccc(CCNc2cc(=O)[nH]c(=O)[nH]2)cc1,Ki,[2],0.000582 µM
COc1ccc2[nH]cc(Cc3c[nH]c4ccccc34)c2c1,%max,[3],53%
same,EC50,[4],0.495 µM
CCCCCCCNc1cc(=O)[nH]c(=O)[nH]1,Ki,[2],0.000866 µM
Oc1cc(NCCc2ccccc2)nc(O)n1,Ki,[2],0.0108 µM
CCCCCCCCCC(O)CC(=O)O (racemic),EC50,[5],3.25 µM
same,Ki,[2],0.11 µM
Clc1cccc2[nH]cc(Cc3c[nH]c4cccc(Cl)c34)c12,%max,[3],94%
same,EC50,[4],0.175 µM
CCCCCCCC(O)CC(=O)O (racemic),EC50,[5],4.05 µM
same,EC50,[6],31.8 µM
same,Ki,[2],3.31 µM
CCCC(c1c[nH]c2ccccc12)c1c[nH]c2ccccc12,IC50,[2],22.4 µM
O=c1cc(NCCc2cccc(Br)c2)[nH]c(=O)[nH]1,Ki,[2],0.00399 µM
O=C(NCCCc1ccccc1)c1cc(=O)[nH]c(=O)[nH]1,Ki,[2],1.59 µM
Cc1ccc(CCNc2cc(=O)[nH]c(=O)[nH]2)cc1,Ki,[2],0.00125 µM
CCCCCCSc1nccc(O)n1,Ki,[2],3.47 µM
CCCCCCNc1[nH]c(=O)[nH]c(=O)c1Br,Ki,[2],0.225 µM
Clc1ccc2c(Cc3c[nH]c4cc(Cl)ccc34)c[nH]c2c1,IC50,[2],43.7 µM
O=c1cc(NCCc2c[nH]c3ccccc23)[nH]c(=O)[nH]1,Ki,[2],0.497 µM
Fc1cc2c(Cc3c[nH]c4cc(Cl)c(F)cc34)c[nH]c2cc1Cl,%max,[3],36%
same,EC50,[4],0.129 µM
same,Selectivity ratio,[7],84
CCCCCCCCNc1[nH]c(=O)[nH]c(=O)c1Br,Ki,[2],0.0347 µM
Fc1cc(F)c2[nH]cc(Cc3c[nH]c4c(F)cc(F)cc34)c2c1,%max,[3],87%
Oc1cc(NCCCCc2ccccc2)nc(O)n1,Ki,[2],0.00058 µM
O=C(c1c[nH]c2ccccc12)c1c[nH]c2ccccc12,%max,[3],59%
same,EC50,[4],1.93 µM
O=c1cc(NCCc2ccccc2Cl)[nH]c(=O)[nH]1,Ki,[2],0.036 µM
O=c1cc(NCCOc2ccccc2)[nH]c(=O)[nH]1,Ki,[2],0.00312 µM
CCCCCNc1cc(=O)[nH]c(=O)[nH]1,Ki,[2],0.091 µM
CCC/C=C/CNc1cc(=O)[nH]c(=O)[nH]1,Ki,[2],0.0374 µM
Brc1ccc2[nH]cc(Cc3c[nH]c4ccc(Br)cc34)c2c1,%max,[3],69%
same,EC50,[4],0.0591 µM
same,Selectivity ratio,[7],58
O=c1cc(O)nc(SCCc2ccc(Br)cc2)[nH]1,Ki,[2],0.00317 µM
CCCCCCCCCCCCC(O)C(=O)O (racemic),EC50,[5],4.36 µM
same,EC50,[6],3.86 µM
same,Ki,[2],0.318 µM
Fc1ccc2c(Cc3c[nH]c4cc(F)ccc34)c[nH]c2c1,%max,[3],57%
same,EC50,[4],0.302 µM
O=c1cc(O)nc(SCCc2ccc(Cl)cc2)[nH]1,Ki,[2],0.00263 µM
Cc1ccc(CCSc2nc(O)cc(=O)[nH]2)cc1,Ki,[2],0.00328 µM
Fc1ccc2[nH]cc(Cc3c[nH]c4ccc(F)cc34)c2c1,%max,[3],125%
same,EC50,[4],0.199 µM
CCCCCCSc1nc(O)cc(CCC)n1,inhibition,[1],51%
same,Ki,[2],≥ 100 µM
CCCCCCNC(=O)c1cc(=O)[nH]c(=O)[nH]1,Ki,[2],0.469 µM
CCCCCCOC(=O)c1cc(=O)[nH]c(=O)[nH]1,Ki,[2],1.21 µM
CCCCCCCCCNc1cc(=O)[nH]c(=O)[nH]1,Ki,[2],0.00112 µM
O=c1cc(NCCc2ccc(F)cc2)[nH]c(=O)[nH]1,Ki,[2],0.0114 µM
CC(C)(C)c1ccc(CCNc2cc(=O)[nH]c(=O)[nH]2)cc1,Ki,[2],0.00127 µM
Fc1ccc2[nH]cc(Cc3c[nH]c4ccc(F)c(F)c34)c2c1F,%max,[3],67%
same,EC50,[4],0.0836 µM
CCCCCCC(O)C(=O)O (racemic),EC50,[5],> 100 µM
same,EC50,[6],> 100 µM
same,inhibition,[1],50%
same,Ki,[2],100 µM
CCCCCCCNc1[nH]c(=O)[nH]c(=O)c1N=O,Ki,[2],0.0586 µM
O=c1cc(O)nc(SCCc2ccc(C(F)(F)F)cc2)[nH]1,Ki,[2],0.0367 µM
CCCCOC(=O)c1cc(O)nc(O)n1,inhibition,[1],-3%
same,Ki,[2],> 10 µM
O=c1cc(NCCc2ccc(Cl)cc2Cl)[nH]c(=O)[nH]1,Ki,[2],0.0023 µM
CCCCCNC(=O)c1cc(=O)[nH]c(=O)[nH]1,Ki,[2],1.56 µM
Clc1ccc2[nH]cc(Cc3c[nH]c4ccc(Cl)cc34)c2c1,%max,[3],90%
same,EC50,[4],0.25 µM
same,Selectivity ratio,[7],20
O=Nc1c(NCCCc2ccccc2)[nH]c(=O)[nH]c1=O,Ki,[2],0.189 µM
Oc1cc(O)nc(SCCCCc2ccccc2)n1,Ki,[2],0.000324 µM
CCCCCCSc1nc(O)cc(C(=O)O)n1,Ki,[2],0.145 µM
CCCCCCCCCCC[C@@H](O)CC(=O)O,EC50,[5],0.452 µM
same,EC50,[6],1.75 µM
same,Ki,[2],0.472 µM
CCCCCCCCNc1[nH]c(=O)[nH]c(=O)c1N=O,Ki,[2],0.037 µM
Fc1cccc2c(Cc3c[nH]c4c(F)cccc34)c[nH]c12,%max,[3],153%
same,EC50,[4],0.0618 µM
O=c1cc(NCCc2cccc(Cl)c2)[nH]c(=O)[nH]1,Ki,[2],0.00475 µM
O=c1cc(NCCCOc2ccccc2)[nH]c(=O)[nH]1,Ki,[2],0.0021 µM
O=c1cc(NCCc2cccc(F)c2)[nH]c(=O)[nH]1,Ki,[2],0.00948 µM
O=c1cc(O)nc(SCCc2ccc(F)cc2)[nH]1,Ki,[2],0.00377 µM
CCCCCCCC(=O)O [OCTANOIC ACID],EC50,[5],> 100 µM
same,EC50,[6],> 100 µM
same,Ki,[2],19.6 µM
CCCCCCCCCCCC(=O)O [DODECANOATE],EC50,[5],3.49 µM
same,Ki,[2],2.17 µM
CCCCCCN(C)c1cc(=O)[nH]c(=O)[nH]1,Ki,[2],0.00694 µM
O=c1cc(NCCc2cccs2)[nH]c(=O)[nH]1,Ki,[2],0.0494 µM
Fc1cccc2[nH]cc(Cc3c[nH]c4cccc(F)c34)c12,%max,[3],56%
same,EC50,[4],1.52 µM
c1ccc2c(Cc3c[nH]c4ccccc34)c[nH]c2c1,inhibition,[2],inactive
same,%max,[3],< 100%
same,Activity,[4],Dose-dependent effect
Fc1cc2[nH]cc(Cc3c[nH]c4cc(F)c(F)cc34)c2cc1F,%max,[3],55%
same,EC50,[4],0.0524 µM
Cn1cc(Cc2cn(C)c3ccccc23)c2ccccc21,IC50,[2],14 µM
CCCCCCCCCCCCC(=O)O [TRIDECANOATE],EC50,[5],1.7 µM
same,EC50,[6],9.61 µM
same,Ki,[2],1.93 µM
